From patent publication US20070128217A1 (priority 2003, published 2007)

How the values were obtained:
[1] = tested on: antibodies in sera from SARS patients (sera 1a, 1b, 2, 6, 37, 62, London, SARS-yellow, SARS-green); format: binding, human; design: Binding of serum 6 to linear peptides of protein X1 of SARS-CoV Urbani / Binding of serum 37 to linear peptides of protein X1 of SARS-CoV Urbani / Binding of serum 6 to looped/cyclic peptide (PEPSCAN-ELISA) / Binding of serum 37 to looped/cyclic peptide (PEPSCAN-ELISA) / Binding of serum 37 to looped/cyclic peptides of protein X1 of SARS-CoV Urbani / Binding of serum 6 to linear peptides of protein X2 / Binding of serum 37 to linear peptides of protein X2 / Binding of serum 37 to looped/cyclic peptides of protein X2 of SARS-CoV Urbani / Binding of serum 6 to linear peptides of protein M of SARS-CoV Urbani / Binding of serum 37 to linear peptides of protein M of SARS-CoV Urbani / Binding of serum 6 to looped/cyclic peptides of protein M of SARS-CoV Urbani / Binding of serum 37 to looped/cyclic peptides of protein M of SARS-CoV Urbani / Binding of serum 6 to linear peptides of protein X3 of SARS-CoV Urbani / Binding of serum 37 to linear peptides of protein X3 of SARS-CoV Urbani / Binding of serum 37 to looped/cyclic peptides of protein X3 of SARS-CoV Urbani / Binding of serum 6 to linear peptides of protein X4 of SARS-CoV Urbani / Binding of serum 37 to linear peptides of protein X4 of SARS-CoV Urbani / Binding of serum 37 to looped/cyclic peptides of protein X4 of SARS-CoV Urbani / Binding of serum 6 to linear peptides of protein X5 of SARS-CoV Urbani / Binding of serum 37 to linear peptides of protein X5 of SARS-CoV Urbani / Binding of serum 37 to looped/cyclic peptides of protein X5 of SARS-CoV Urbani / Binding of serum 6 to linear peptides of protein N of SARS-CoV Urbani / Binding of serum 37 to linear peptides of protein N of SARS-CoV Urbani / Binding of serum 6 to linear peptide (PEPSCAN-ELISA) / Binding of serum 1a to looped/cyclic peptides of protein N of SARS-CoV Urbani / Binding of serum 1b to looped/cyclic peptides of protein N of SARS-CoV Urbani / Binding of serum 2 to looped/cyclic peptides of protein N of SARS-CoV Urbani / Binding of serum 6 to looped/cyclic peptides of protein N of SARS-CoV Urbani / Binding of serum 37 to looped/cyclic peptides of protein N of SARS-CoV Urbani / Binding of serum 62 to looped/cyclic peptides of protein N of SARS-CoV Urbani / Binding of serum London to looped/cyclic peptides of protein N of SARS-CoV Urbani / Binding of serum SARS-green to looped/cyclic peptides of protein N of SARS-CoV Urbani: unit not given here
[2] = tested on: control sera (pooled serum of ten healthy LUMC hospital workers; commercial negative donor pooled serum from the Dutch bloodbank); format: binding, human; design: Binding of Control serum LUMC to linear peptides / Binding of Control serum Blood-bank to linear peptides / Binding of Control serum LUMC to looped peptides / Binding of Control Serum Blood-Bank to Looped peptides / Binding of Control serum LUMC to linear peptides of the protein M of SARS-CoV Urbani / Binding of Control serum Blood-bank to linear peptides of the protein M of SARS-CoV Urbani / Binding of Control serum LUMC to looped peptides of the protein M of SARS-CoV Urbani / Binding of Control Serum Blood-Bank to Looped peptides of the protein M of SARS-CoV Urbani: unit not given here
[3] = tested on: rabbit serum obtained by immunizing a rabbit with the SARS-CoV strain Frankfurt 1; format: binding; design: Binding of a rabbit serum to linear peptides / Binding of a rabbit serum to looped peptides / Rabbit serum linear peptides / Rabbit serum looped peptides / Binding of a rabbit serum to linear peptides of protein N of SARS-CoV Urbani (Rabbit serum linear peptides) / Binding of a rabbit serum to looped/cyclic peptides of protein N of SARS-CoV Urbani (Rabbit serum looped peptides): unit not given here

In the case of PAGGALIARCWYLHE, the “Binding of serum 1a to linear peptides of protein X5 of SARS-CoV Urbani” value [1] is reported as 0.8, the “Binding of serum 1a to looped/cyclic peptides of protein X5 of SARS-CoV Urbani” value [1] is reported as 0.8 and the “Binding of serum 1b to linear peptides of protein X5 of SARS-CoV Urbani” value [1] is reported as 0.9. The “Binding of serum 1b to looped/cyclic peptides of protein X5 of SARS-CoV Urbani” value [1] was 0.6, the “Binding of serum 2 to linear peptides of protein X5 of SARS-CoV Urbani” value [1] was 0.6 and the “Binding of serum 2 to looped/cyclic peptides of protein X5 of SARS-CoV Urbani” value [1] was 0.6. For the same sequence, the “Binding of serum 6 to linear peptides of protein X5 of SARS-CoV Urbani” value [1] was 0.8, the “Binding of serum 6 to looped/cyclic peptides of protein X5 of SARS-CoV Urbani” value [1] was 0.4 and the “Binding of serum 37 to linear peptides of protein X5 of SARS-CoV Urbani” value [1] was 0.9. The “Binding of serum 37 to looped/cyclic peptides of protein X5 of SARS-CoV Urbani” value [1] was 0.7, the “Binding of serum 62 to linear peptides of protein X5 of SARS-CoV Urbani” value [1] was 0.9 and the “Binding of serum 62 to looped/cyclic peptides of protein X5 of SARS-CoV Urbani” value [1] was 0.7. The “Binding of serum London to linear peptides of protein X5 of SARS-CoV Urbani” value [1] was 0.7, the “Binding of serum London to looped/cyclic peptides of protein X5 of SARS-CoV Urbani” value [1] was 0.3 and the “Binding of serum SARS-green to linear peptides of protein X5 of SARS-CoV Urbani” value [1] was 0.9. The “Binding of serum SARS-green to looped/cyclic peptides of protein X5 of SARS-CoV Urbani” value [1] was 0.6, the “Binding of serum SARS-yellow to linear peptides of protein X5 of SARS-CoV Urbani” value [1] was 0.3 and the “Binding of serum SARS-yellow to looped/cyclic peptides of protein X5 of SARS-CoV Urbani” value [1] was 0.5. For the same sequence, the “Binding of Control Serum Blood-Bank to Looped peptides” value [2] was 0.8, the “Binding of Control serum Blood-bank to linear peptides” value [2] was 0.7 and the “Binding of Control serum LUMC to linear peptides” value [2] was 0.4. For the same sequence, the “Binding of Control serum LUMC to looped peptides” value [2] was 0.5, the “Rabbit serum linear peptides” value [3] was 0.5 and the “Rabbit serum looped peptides” value [3] was 0.5.

In the case of PCPSGTYEGNSPFHP, the “Binding of serum 1a to linear peptides of protein X4 of SARS-CoV Urbani” value [1] is reported as 0.7, the “Binding of serum 1a to looped/cyclic peptides of protein X4 of SARS-CoV Urbani” value [1] is reported as 0.7 and the “Binding of serum 1b to linear peptides of protein X4 of SARS-CoV Urbani” value [1] is reported as 0.5. The “Binding of serum 1b to looped/cyclic peptides of protein X4 of SARS-CoV Urbani” value [1] was 0.1, the “Binding of serum 2 to linear peptides of protein X4 of SARS-CoV Urbani” value [1] was 0.4 and the “Binding of serum 2 to looped/cyclic peptides of protein X4 of SARS-CoV Urbani” value [1] was 0.7. The “Binding of serum 6 to linear peptides of protein X4 of SARS-CoV Urbani” value [1] was 0.5, the “Binding of serum 6 to looped/cyclic peptides of protein X4 of SARS-CoV Urbani” value [1] was 0.5 and the “Binding of serum 37 to linear peptides of protein X4 of SARS-CoV Urbani” value [1] was 0.7. The “Binding of serum 37 to looped/cyclic peptides of protein X4 of SARS-CoV Urbani” value [1] was 0.7, the “Binding of serum 62 to linear peptides of protein X4 of SARS-CoV Urbani” value [1] was 0.7 and the “Binding of serum 62 to looped/cyclic peptides of protein X4 of SARS-CoV Urbani” value [1] was 0.7. The “Binding of serum London to linear peptides of protein X4 of SARS-CoV Urbani” value [1] was 0.7, the “Binding of serum London to looped/cyclic peptides of protein X4 of SARS-CoV Urbani” value [1] was 0.3 and the “Binding of serum SARS-green to linear peptides of protein X4 of SARS-CoV Urbani” value [1] was 0.5. The “Binding of serum SARS-green to looped/cyclic peptides of protein X4 of SARS-CoV Urbani” value [1] was 0.4, the “Binding of serum SARS-yellow to linear peptides of protein X4 of SARS-CoV Urbani” value [1] was 0.7 and the “Binding of serum SARS-yellow to looped/cyclic peptides of protein X4 of SARS-CoV Urbani” value [1] was 0.4. For the same sequence, the “Binding of Control Serum Blood-Bank to Looped peptides” value [2] was 0.7, the “Binding of Control serum Blood-bank to linear peptides” value [2] was 0.6 and the “Binding of Control serum LUMC to linear peptides” value [2] was 0.5. The “Binding of Control serum LUMC to looped peptides” value [2] was 0.9, the “Rabbit serum linear peptides” value [3] was 0.6 and the “Rabbit serum looped peptides” value [3] was 0.4.

PETNILLNVPLRGTI was tested, and the “Binding of serum 1a to linear peptides of protein M of SARS-CoV Urbani” value [1] was 0.8, the “Binding of serum 1a to looped/cyclic peptides of protein M of SARS-CoV Urbani” value [1] was 0.6 and the “Binding of serum 1b to linear peptides of protein M of SARS-CoV Urbani” value [1] was 0.6. For the same sequence, the “Binding of serum 1b to looped/cyclic peptides of protein M of SARS-CoV Urbani” value [1] was 0.6, the “Binding of serum 2 to linear peptides of protein M of SARS-CoV Urbani” value [1] was 0.7 and the “Binding of serum 2 to looped/cyclic peptides of protein M of SARS-CoV Urbani” value [1] was 0.7. For the same sequence, the “Binding of serum 6 to linear peptides of protein M of SARS-CoV Urbani” value [1] was 0.4, the “Binding of serum 6 to looped/cyclic peptides of protein M of SARS-CoV Urbani” value [1] was 0.9 and the “Binding of serum 37 to linear peptides of protein M of SARS-CoV Urbani” value [1] was 0.9. For the same sequence, the “Binding of serum 37 to looped/cyclic peptides of protein M of SARS-CoV Urbani” value [1] was 0.8, the “Binding of serum 62 to linear peptides of protein M of SARS-CoV Urbani” value [1] was 0.5 and the “Binding of serum 62 to looped/cyclic peptides of protein M of SARS-CoV Urbani” value [1] was 0.8. For the same sequence, the “Binding of serum London to linear peptides of protein M of SARS-CoV Urbani” value [1] was 0.4, the “Binding of serum London to looped/cyclic peptides of protein M of SARS-CoV Urbani” value [1] was 0.3 and the “Binding of serum SARS-green to linear peptides of protein M of SARS-CoV Urbani” value [1] was 0.5. The “Binding of serum SARS-green to looped/cyclic peptides of protein M of SARS-CoV Urbani” value [1] was 0.0, the “Binding of serum SARS-yellow to linear peptides of protein M of SARS-CoV Urbani” value [1] was 0.3 and the “Binding of serum SARS-yellow to looped/cyclic peptides of protein M of SARS-CoV Urbani” value [1] was 0.6. The “Binding of Control Serum Blood-Bank to Looped peptides of the protein M of SARS-CoV Urbani” value [2] was 0.8, the “Binding of Control serum Blood-bank to linear peptides of the protein M of SARS-CoV Urbani” value [2] was 0.8 and the “Binding of Control serum LUMC to linear peptides of the protein M of SARS-CoV Urbani” value [2] was 0.8. The “Binding of Control serum LUMC to looped peptides of the protein M of SARS-CoV Urbani” value [2] was 0.7, the “Rabbit serum linear peptides” value [3] was 0.1 and the “Rabbit serum looped peptides” value [3] was 0.3.
